From patent US20020165213A1, “Estrogen induced neural stem cell increase” (Neurostasis, Inc., priority 2001, published 2002)

Columns and labels:
[1] = test system: proliferating cells in the dentate gyrus; conditions: literature (Alonso, 2000; Tanapat et al., 1999); cited from earlier work
[2] = test system: SVZ proliferating cells; conditions: literature (Alonso, 2000; Tanapat et al., 1999); cited from earlier work
[3] = test system: embryonic neural stem cells (embryonic day 14); test: Estradiol on embryonic neural stem cell cultures: secondary spheres from one single sphere; type: cell-based
Method: (§1) To determine if estradiol, the main form of estrogen, increases the number of neural stem cells, the effect of estradiol on neural stem cell cultures was examined. Primary neural stem cells (from embryonic day 14 or adult subventricular zone) were cultured in EGF for seven days to make neurospheres. These primary neurospheres were then dissociated and re-plated in EGF to make pass 1 neurospheres. Pass 1 neurospheres, either embryonic or adult, were dissociated and plated (50,000 cell/ml) in culture medium containing EGF alone or EGF+4 nM estradiol. The culture was allowed to progress for seven days. To determine the number of neural stem cells in each culture, single spheres (15-20 per experiment) were dissociated and plated in single wells of a 96 well plate in culture medium containing EGF only. After 7 days, the number of spheres which came from one single sphere was counted. The following data represent the results from 15-20 replicates.

[4] = test system: adult neural stem cells (adult subventricular zone); test: Estradiol on adult neural stem cell cultures: secondary spheres from one single sphere; type: cell-based
Method: as §1

[5] = EGF+4 nM estradiol versus EGF alone

Compound	cell proliferation in the dentate gyrus [1]	cell proliferation / mitotic activity in the SVZ [2]	increase in the number of embryonic neural stem cells in response to estradiol [3, 5] [%]	# secondary spheres from one single sphere ([3]; Embryo pass 1 neurospheres, EGF+4 nM estradiol, seven days, single spheres re-plated in EGF only, counted after 7 days, 15-20 replicates)	# secondary spheres from one single sphere ([4]; Adult pass 1 neurospheres, EGF+4 nM estradiol, seven days, single spheres re-plated in EGF only, counted after 7 days, 15-20 replicates)	increase in the number of adult neural stem cells in response to estradiol [4, 5] [%]
C[C@]12C[C@H](O)[C@H]3[C@@H](CCC4=CC(=O)CC[C@@]43C)[C@@H]1CC[C@@H]2C(=O)CO [corticosterone]	dramatically decreases cell proliferation	no effect	–	–	–	–
Estrogen	stimulate proliferation	no mitotic activity	–	–	–	–
C[C@]12CC[C@@H]3c4ccc(O)cc4CC[C@H]3[C@@H]1CC[C@@H]2O [estradiol]	–	–	150	104±15	78±11	35
